Source: US10736932B2, “Small molecule Ras inhibitors” (Ohio State Innovation Foundation, priority 2014, dated 2020)
“And” between values parts separate entries of the source, which are not always exact repeats. Identical values can stand only once. Like-named read-outs stand apart in the source and are kept apart here. Numbered stars: 1 amine (or outer) side, 2 acyl side, 3 side chain; on linkers, the order of the positions; unused ones are H or OH. Bridge positions count the residues as written; N and C are the ends. Square brackets hold non-standard residues; d marks the D form. Peptide text beside a SMILES is read from it. * marks the point of attachment. ξ: configuration not given here. Lys(5-FITC)NH2 = NC(=O)[C@H](CCCCNC(=S)Nc1ccc2c(c1)C(=O)OC21c2ccc(O)cc2Oc2cc(O)ccc21)N*; FITC = O=C1OC2(c3ccc(O)cc3Oc3cc(O)ccc32)c2ccc(NC(=S)*)cc21; dβ3h(hPhe) = O=C(C[C@@H](CCc1ccccc1)N[*:1])[*:2]; Phe(4-F) = N[C@@H](Cc1ccc(F)cc1)C(=O)O; d2Nal = N[C@H](Cc1ccc2ccccc2c1)C(=O)O; Benzoyl(3-Br) = O=C(c1cccc(Br)c1)*; Benzoyl(3-Cl) = O=C(c1cccc(Cl)c1)*; X1 = CC(C)(CO[*:2])C(=O)C(=O)[*:1]; ξ2Nal = NC(Cc1ccc2ccccc2c1)C(=O)O; Tle = CC(C)(C)[C@H](N)C(=O)O; dNle = CCCC[C@@H](N)C(=O)O; Dap = NC[C@H](N)C(=O)O; ξPip = O=C(O)C1CCCCN1

Legend:
[1] = inability to cross the cell membrane; cited from earlier work
[2] = target: T1, K-Ras / Raf RBD interaction (Homo sapiens, UniProt P01116, G12V); test: HTRF assay, inhibition of Ras-Raf RBD interaction; format: binding;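 note: HTRF signal read after overnight incubation of the assay plate at 4 °C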
T1 construct: The G12V mutant K-Ras (amino acids 1-185) was recombinantly fused; GST (N, cleaved yes); made in house; host or cells: Escherichia coli BL21
Protocol: Recombinant HA-tagged K-Ras (no GST, 50 nM), GST-Raf RBD (50 nM each), a monoclonal anti-HA antibody labeled with acceptor d2 (2 μg/mL), a monoclonal anti-GST antibody labeled with donor Tb (0.25 μg/mL) (Cisbio), and increasing concentrations of cyclic peptide (0-20 μM) were mixed inPBS (total volume of 20 μL) in a 384-well plate. The plate was incubated overnight at 4° C. and the HTRF signal was measured on a Molecular Devices Spectramax M5 or a Tecan infinite M1000 Pro plate reader. The data were analyzed by Prism 6.0 from Graphpad Software, Inc. (La Jolla, Calif.) and IC50 values were obtained by fitting the data to dose-response-inhibition curve.

A549 cells [3] = test: Cellular uptake of FITC-labeled peptides (live-cell confocal microscopy, FACS)
K-Ras(G12V) = target: T2, K-Ras(G12V) (Homo sapiens, UniProt P01116, G12V); test: Fluorescence anisotropy (FA) binding of FITC-labeled cyclic peptides to K-Ras; settings: Table 2; FITC-labeled peptide; read-out: Binding affinity KD
T2 construct: The G12V mutant K-Ras (amino acids 1-185) was recombinantly fused; GST (N, cleaved yes); made in house; host or cells: Escherichia coli BL21
Protocol: The 13 hits were resynthesized, labeled with fluorescein isothiocyanate (FITC), purified by HPLC, and tested for binding to K-Ras by fluorescence anisotropy (FA).
For cyclic peptides derived from single library beads (library screening), K-Ras protein (non-GST fusion, 0-20 μM) was incubated with the TMR-labeled peptide (50 or 100 nM) in 20 μL of the blocking buffer for 2.5 h at 24° C. The FA values were measured on a Molecular Devices Spectramax M5 spectrofluorimeter, with excitation and emission wavelengths at 545 and 585 nm, respectively. Equilibrium dissociation constants (KD) were determined by plotting the FA values as a function of K-Ras concentration and fitting the data to the equation
[formula] where Y is the measured anisotropy at a given K-Ras concentration x; L is the peptide concentration; Qb/Qf is the correction fact for dye-protein interaction; Amax is the maximum anisotropy at saturating K-Ras concentration; and Amin is the minimum anisotropy. FA analyses with resynthesized FITC-labeled peptides were similarly carried out, except that the excitation and emission wavelengths were at 494 and 520 nm, respectively.

H1299 lung cancer cells = format: cell-based; settings: for anti-proliferative activity against lung cancer cells (in words): MTT assay
Protocol: MTT assays (17) were performed with H1299 lung cancer cells. One hundred μL of H1299 cells (0.5×10^5 cells/mL) were seeded in each well of a 96-well culture plate and allowed to grow overnight in Advanced RPMI medium supplemented with 10% fetal bovine serum (FBS) and 1% penicillin-streptomycin. Varying concentrations of cyclic peptide (0-25 μM) were added to the each well and the cells were incubated at 37° C. with 5% CO2 for 72 hours. Ten μL of a MTT stock solution (Roche) was added into each well. The plate was incubated at 37° C. for 4 h. Then 100 μL of SDS-HCl solubilizing buffer was added into each well, and the resulting solution was mixed thoroughly. The plate was incubated at 37° C. overnight. The absorbance of the formazan product was measured at 570 nm using a Molecular Devices Spectramax M5 plate reader. Each experiment was performed in triplicates and the cells without any peptide added were treated as control.

A549 cells [4] = test system: A549 cells
[5] = target: maltose-binding protein-XIAP BIR3 domain fusion (Homo sapiens, UniProt P98170); test: FA binding of FITC-9A5 to control protein MBP-XIAP BIR3
[6] = inhibition of Ras-Raf interaction, read-out: HTRF IC50

T1 sequence (P01116 1-185 isoform P01116-2 G12V): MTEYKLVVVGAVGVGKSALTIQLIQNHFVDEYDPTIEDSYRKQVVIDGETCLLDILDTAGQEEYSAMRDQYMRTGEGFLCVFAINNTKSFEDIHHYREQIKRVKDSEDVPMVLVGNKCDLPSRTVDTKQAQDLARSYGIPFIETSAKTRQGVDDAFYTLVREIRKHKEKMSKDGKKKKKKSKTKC
maltose-binding protein-XIAP BIR3 domain fusion, sequence (P98170 241-356 limits assumed): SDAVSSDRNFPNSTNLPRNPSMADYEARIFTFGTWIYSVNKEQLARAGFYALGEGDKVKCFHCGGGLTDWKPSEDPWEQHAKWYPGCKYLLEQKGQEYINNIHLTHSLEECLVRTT
T2 sequence (P01116 1-185 isoform P01116-2 G12V): as the sequence (P01116 1-185 isoform P01116-2 G12V) above

For CCCC[C@H]1NC(=O)[C@H](Cc2ccc(F)cc2)NC(=O)[C@H](CCCN=C(N)N)NC(=O)C(Cc2ccc3ccccc3c2)NC(=O)[C@H](CCCN=C(N)N)NC(=O)[C@H](CCCN=C(N)N)NC(=O)[C@H](CCC(N)=O)NC(=O)C[C@@H](CCc2ccccc2)NC(=O)C2CCCCN2C(=O)C(=O)C(C)(C)COC1=O (stereo partly drawn) [Compound 12] ([ξPip][dβ3h(hPhe)]QRR[ξ2Nal]R[Phe(4-F)][dNle]; linker N-C via X1), the cellular activity [1] is given as “lacked cellular activity”.

With CCCC[C@H]1NC(=O)[C@H](Cc2ccc(F)cc2)NC(=O)[C@H](CCCNC(=N)N)NC(=O)[C@@H](Cc2ccc3ccccc3c2)NC(=O)[C@H](CCCNC(=N)N)NC(=O)[C@H](CCCNC(=N)N)NC(=O)[C@@H](CCCNC(=N)N)NC(=O)[C@@H](C)NC(=O)[C@H]([C@@H](C)O)NC(=O)[C@H](Cc2c[nH]c3ccccc23)NC(=O)[C@H](CCC(N)=O)NC1=O [Cyclorasin 9A6, (Trp-Thr-ala-arg-Arg-Arg-nal-Arg-Fpa-nle-Gln)] (cyclo(WT[dA][dR]RR[d2Nal]R[Phe(4-F)][dNle]Q)) the IC50 [2] was 0.17 µM and the “cell permeability relative to earlier peptides” value (A549 cells [3]; Gln8 replaced with L- or D-arginine) was “improved cell permeability”.

For C[C@H]1NC(=O)[C@H](C(C)(C)C)NC(=O)[C@H](Cc2c[nH]c3ccccc23)NC(=O)[C@H](CCC(N)=O)NC(=O)[C@@H](CCCCNC(=O)c2cccc(Br)c2)NC(=O)[C@H](Cc2ccc(F)cc2)NC(=O)[C@H](CCCNC(=N)N)NC(=O)[C@@H](Cc2ccc3ccccc3c2)NC(=O)[C@H](CCCCNC(=S)Nc2ccc3c(c2)C(=O)OC32c3ccc(O)cc3Oc3cc(O)ccc32)NC(=O)[C@H](CCCNC(=N)N)NC(=O)[C@H](CCCNC(=N)N)NC1=O [Cyclorasin 9A36, (Trp-Tle-ala-Arg-Arg-Lys(FITC)-nal-Arg-Fpa-lys(3-bromobenzoyl)-Gln)] (cyclo(K(FITC)[d2Nal]R[Phe(4-F)][dK](Benzoyl(3-Br))QW[Tle][dA]RR)), the Kd (K-Ras(G12V)) was > 20 µM.

CCCC[C@H]1NC(=O)[C@H](CNC(=O)c2cccc(Cl)c2)NC(=O)[C@H](CCCNC(=N)N)NC(=O)[C@@H](Cc2ccc3ccccc3c2)NC(=O)[C@H](CCCNC(=N)N)NC(=O)[C@H](CCCNC(=N)N)NC(=O)[C@H](CCCNC(=N)N)NC(=O)[C@@H](C)NC(=O)[C@H](C(C)(C)C)NC(=O)[C@H](Cc2c[nH]c3ccccc23)NC(=O)[C@H](CCC(N)=O)NC1=O [Cyclorasin 9A44d, (Trp-Tle-ala-Arg-Arg-Arg-nal-Arg-Dap(3-chlorobenzoyl)-nle-Gln)] (cyclo(W[Tle][dA]RRR[d2Nal]R[Dap](Benzoyl(3-Cl))[dNle]Q)) showed an IC50 [2] of 0.049 ± 0.007 µM and an IC50 (H1299 lung cancer cells; H1299 cells, MTT, 72 hours, read-out: Anti-proliferative Activity IC50) of 14 ± 2 µM.

With CCCC[C@H]1NC(=O)[C@H](Cc2ccc(F)cc2)NC(=O)[C@H](CCCNC(=N)N)NC(=O)[C@@H](Cc2ccc3ccccc3c2)NC(=O)[C@H](CCCNC(=N)N)NC(=O)[C@H](CCCNC(=N)N)NC(=O)[C@H](CCC(=O)N[C@@H](CCCCNC(=S)Nc2ccc3c(c2)C(=O)OC32c3ccc(O)cc3Oc3cc(O)ccc32)C(N)=O)NC(=O)[C@@H](C)NC(=O)[C@H]([C@@H](C)O)NC(=O)[C@H](Cc2c[nH]c3ccccc23)NC(=O)[C@@H](CO)NC1=O [Cyclorasin 9A, (Arg-Arg-nal-Arg-Fpa-nle-ser-Trp-Thr-ala-Gln)] (cyclo(RR[d2Nal]R[Phe(4-F)][dNle][dS]WT[dA]E(Lys(5-FITC)NH2))) the IC50 [2, 6] was 0.65 ± 0.11 µM, the “anti-proliferative activity against lung cancer cells (in words)” value (H1299 lung cancer cells) was “weak” and the cell permeability (A549 cells [3]; A549 cells, 10 μM FITC-labeled peptide, 1.5 h) was “cell permeable”.

For C[C@H]1NC(=O)[C@H](CCCNC(=N)N)NC(=O)[C@H](Cc2c[nH]c3ccccc23)NC(=O)[C@H](CCCNC(=N)N)NC(=O)[C@H](Cc2ccc(F)cc2)NC(=O)[C@H](CCCNC(=N)N)NC(=O)[C@@H](Cc2ccc3ccccc3c2)NC(=O)[C@H](CCCNC(=N)N)NC(=O)[C@H](CCCNC(=N)N)NC(=O)[C@H](CCC(N)=O)NC1=O [Cyclorasin 12A, (Arg-Arg-nal-Arg-Fpa-Arg-Trp-Arg-ala-Gln)] (cyclo(RR[d2Nal]R[Phe(4-F)]RWR[dA]Q); ring closure inferred), the IC50 [2, 6] was 1 µM, the “anti-proliferative activity against lung cancer cells (in words)” value (H1299 lung cancer cells) was “weak” and the cell permeability (A549 cells [4]) was “cell permeable”.

With CCCC[C@H]1NC(=O)[C@H](Cc2ccc(F)cc2)NC(=O)[C@H](CCCNC(=N)N)NC(=O)[C@@H](Cc2ccc3ccccc3c2)NC(=O)[C@H](CCCCNC(=S)Nc2ccc3c(c2)C(=O)OC32c3ccc(O)cc3Oc3cc(O)ccc32)NC(=O)[C@H](CCCNC(=N)N)NC(=O)[C@H](CCCNC(=N)N)NC(=O)[C@@H](C)NC(=O)[C@H]([C@@H](C)O)NC(=O)[C@H](Cc2c[nH]c3ccccc23)NC(=O)[C@H](CCC(N)=O)NC1=O [FITC-9A5] (cyclo(K(FITC)[d2Nal]R[Phe(4-F)][dNle]QWT[dA]RR)) the Kd [5] was ~30 µM and 30 µM, the “mean fluorescence intensity relative to FITC-9A54 (FACS)” value (A549 cells [3]; A549 cells, 10 μM FITC-labeled peptide) was ~5 fold and the “intracellular fluorescence pattern (confocal microscopy)” value (A549 cells [3]; A549 cells, 10 μM FITC-labeled peptide, 15 min) was “intense, defuse fluorescence throughout the cytoplasm”.
